Molecules are shown by their SMILES.

For one series, the target named is T1, CRTH2 (Homo sapiens, UniProt Q9Y5Y4).
T1 sequence (Q9Y5Y4 1-395): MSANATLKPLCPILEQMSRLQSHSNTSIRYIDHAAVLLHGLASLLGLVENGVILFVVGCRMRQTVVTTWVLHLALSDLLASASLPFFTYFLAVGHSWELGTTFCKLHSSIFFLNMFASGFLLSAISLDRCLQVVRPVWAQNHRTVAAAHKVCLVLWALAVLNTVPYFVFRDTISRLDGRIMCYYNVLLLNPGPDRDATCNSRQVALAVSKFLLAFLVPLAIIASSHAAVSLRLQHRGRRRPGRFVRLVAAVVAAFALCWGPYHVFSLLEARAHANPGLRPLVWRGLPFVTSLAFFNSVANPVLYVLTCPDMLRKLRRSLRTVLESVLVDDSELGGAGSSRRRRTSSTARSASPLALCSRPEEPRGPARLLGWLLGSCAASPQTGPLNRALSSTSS
In words: [35S]GTPγS binding assay (CHO-CRTH2 cell membranes). Type of series: biochemical. More on the design: expressed in transfected cells; host or cells: CHO-CRTH2 cells. To be noted: for Emax: inverse agonists, 100% of Emax = activity with 1 μM PGD2; for IC50: antagonist mode, fixed concentration of PGD2 (EC80). A general note: Binding of GTPγS marks nucleotide exchange on a G protein.

Series [1] in a line: In vivo pharmacokinetic evaluation in mouse. The arrangement: species or system C57BL/6 female mice. To be noted: mice; for clearance / bioavailability / AUC: female, C57BL/6, mouse, plasma; for clearance: iv, i.v. 1 mg/Kg; for AUC po (5 mg/Kg) / AUC: oral gavage 5 mg/Kg; for bioavailability: po, 5 mg/kg. On the procedure: In order to study the pharmacokinetic (PK) profile of test compounds in vivo, Sprague Dawley male rats or C57BL/6 female mice were dosed intravenously or after oral gavage. For both species, test compounds were dosed in solution at 1 mg/kg for i.v. route (10% ethanol, 10% N,N-dimethylacetamide, 30% propylene glycol, 50% water, v/v) and in suspension at 5 mg/kg (0.5% carboxymethylcellulose suspension, containing 0.25% Tween 20 in water) for oral gavage. PK profile in rat was obtained from 3 animals per dosing route and mouse PK profile was determined from 3 animals for each time points. The volume of administration was 2 mL/kg for i.v. dosing in both species and either 5 mL/kg (rat) or 10 mL/kg (mouse) for oral gavage. Blood samples (100 μL/time point) were collected at 0.083 (5 min), 0.25, 0.5, 1, 4, 7 and 24 hours post-dose for i.v. dosing, and at 0.5, 1, 4, 7 and 24 h for oral dosing, into heparin-Li+ containing tubes. For rats, all blood samples were collected trough a catheter in the carotid artery (placed in the artery the day before the experiment), under light isoflurane anesthesia, and stored on ice until centrifugation and plasma isolation. For mouse, blood samples were collected from intracardiac puncture at sacrifice at each time point and processed as described above for the rat. Plasma samples were stored frozen until analysis (−20° C. to −70° C.). For bioanalysis, samples were processed by protein precipitation (acetonitrile, formic acid 0.1%, addition of 3 volumes) after addition of one internal standard and analysed using a sensitive and selective LC/MS/MS method. An aliquot of the resulting supernatant was subject to LC/MS/MS analysis using a reverse phase column (Waters Xterra, C8, (3.5 μm particle size, 2.1×50 mm) and a short gradient (1 min) from (Solvent A) 85% water, 15% acetonitrile and 0.1% formic acid to (Solvent B) 90% acetonitrile, 10% water and 0.1% formic acid followed by isocratic conditions of Solvent B for 3.5 min at 0.4 mL/min. Column effluent was monitored using a Sciex API 4000 triple quadrupole mass spectrometer with a Turbo V electrospray ion source. Unknown concentrations of test compounds were determined using a calibration curve ranging from 1 to 3000 ng/mL.

By Emax is commonly meant the size of the effect at its maximum, as opposed to the concentration needed. As a reminder, the clearance is the volume of plasma or blood freed of the substance per unit of time. A lower clearance goes with inefficient removal. In the case of `O=C(O)COc1ccc(Cl)cc1C#Cc1ccc2c(c1)S(=O)(=O)c1ccccc1-2` [Example 154, {4-chloro-2-[(5,5-dioxidodibenzo[b,d]thien-3-yl)ethynyl]phenoxy}acetic acid], the Emax at CRTH2 was -17%. In addition, in series [1], the clearance was 1.67 mL/min/kg, the Oral bioavailability came out at 57% and the “AUC po (5 mg/Kg)” value was found to be 30942 ng·h/mL.

In the case of `CN(C)S(=O)(=O)c1ccc(F)c(C#Cc2cc(Cl)ccc2OCC(=O)O)c1` [Example 107, [4-chloro-2-({5-[(dimethylamino)sulfonyl]-2-fluorophenyl}ethynyl)phenoxy]acetic acid], the Emax on CRTH2 was -13%. In series [1], the clearance was 10 mL/min/kg, the Oral bioavailability was 58% and the “AUC po (5 mg/Kg)” value worked out at 4880 ng·h/mL.

By IC50 is commonly meant the concentration needed to halve the response being measured. Regarding `CC(C)S(=O)(=O)c1ccc(F)c(C#Cc2cc(Cl)ccc2OCC(=O)O)c1` [Example 102, (4-chloro-2-{[2-fluoro-5-(isopropylsulfonyl)phenyl]ethynyl}phenoxy)acetic acid], at CRTH2, the IC50 turned out to be 4 nM. Besides, in series [1], the clearance is 5.83 mL/min/kg, the bioavailability was found to be 130% and the “AUC po (5 mg/Kg)” value came to 18691 ng·h/mL.

For the molecule `CCCS(=O)(=O)c1ccc(C)c(C#Cc2cc(Cl)ccc2OCC(=O)O)c1` [Example 38, (4-chloro-2-{[2-methyl-5-(propylsulfonyl)phenyl]ethynyl}phenoxy)acetic acid], the concentration for half-maximal inhibition (IC50) at CRTH2 is 6 nM. Also, in series [1], the clearance was 16.7 mL/min/kg, the bioavailability came to 80% and the “AUC po (5 mg/Kg)” value came to 3685 ng·h/mL.

Take `CCCS(=O)(=O)c1cccc(C#Cc2cc(Cl)ccc2OCC(=O)O)c1` [Example 17, (4-chloro-2-{[3-(propylsulfonyl)phenyl]ethynyl}phenoxy)acetic acid]: in series [1], the clearance was 5 mL/min/kg, the Oral bioavailability is on record as 37% and the “AUC po (5 mg/Kg)” value was 5768 ng·h/mL.

On to `CCCS(=O)(=O)c1ccc(Cl)c(C#Cc2cc(Cl)ccc2OCC(=O)O)c1` [Example 101, (4-chloro-2-{[2-chloro-5-(propylsulfonyl)phenyl]ethynyl}phenoxy)acetic acid], for which, in series [1], the clearance is 16.7 mL/min/kg, the bioavailability stood at 110% and the “AUC po (5 mg/Kg)” value amounted to 5795 ng·h/mL.

For orientation: AUC means the area under the concentration-time curve, a measure of exposure. Low values mean less exposure, high ones more exposure. Take `CCCS(=O)(=O)c1ccc(F)c(C#Cc2cc(Cl)ccc2OCC(=O)O)c1` [Example 89, (4-chloro-2-{[2-fluoro-5-(propylsulfonyl)phenyl]ethynyl}phenoxy)acetic acid]: in series [1], the clearance was 6.67 mL/min/kg, the AUC was determined as 6750 ng·h/mL and the Oral bioavailability amounted to 63%.

In the case of `CC(C)S(=O)(=O)c1ccc(Cl)c(C#Cc2cc(Cl)ccc2OCC(=O)O)c1` [Example 103, (4-chloro-2-{[2-chloro-5-(isopropylsulfonyl)phenyl]ethynyl}phenoxy)acetic acid], in series [1], the clearance is 11.7 mL/min/kg, the Oral bioavailability amounted to 64% and the “AUC po (5 mg/Kg)” value was found to be 4889 ng·h/mL.

For the molecule `CN(C)S(=O)(=O)c1cncc(C#Cc2cc(Cl)ccc2OCC(=O)O)c1` [Example 35, [4-chloro-2-({5-[(dimethylamino)sulfonyl]pyridin-3-yl}ethynyl)phenoxy]acetic acid], on CRTH2, the IC50 was found to be 126 nM. In series [1], this molecule had a clearance of 13.3 mL/min/kg, an AUC of 6210 ng·h/mL and an Oral bioavailability of 95%.

(Values after patent US8273769B2, “Phenoxy acetic acid derivatives” (Merck Serono SA, priority 2009, dated 2012).)
